# Reference: patent US20250090439A1, “COMPOSITION COMPRISING HYDRANGENOL AS ACTIVE INGREDIENT FOR IMPROVING HAIR OR SCALP CONDITION” (COSMAX BIO CO., LTD., priority 2021, published 2025)
# Legend:
# [1] = system: human follicle dermal papilla cells (HFDPC); experiment: Cytotoxicity in dermal papilla cells (MTT assay); assay type: cell-based; conditions: 24 hours
# Protocol: It was confirmed whether the Hydrangea serrata extract and hydrangenol obtained according to Examples 1 and 2 were cytotoxic to human follicle dermal papilla cells (HFDPC).
# HFDPC cells were cultured in follicle dermal papilla cell growth medium including supplement mix (5% fetal calf serum, 0.5% bovine pituitary extract, 0.5 μg basic fibroblast growth factor, and 2.5 mg insulin) and 1% antibiotic antimycotic solution. HDFPC cell lines were seeded into a 96-well plate at a concentration of 1.0×10^4 cells/well and incubated in a CO2 incubator conditioned at 37° C., 95% humidity, and 5% CO2 for 24 hours. Subsequently, the medium was replaced with medium without supplement mix and was treated with samples of each concentration and after 24 hours of incubation, cell viability was measured by MTT assay. The MTT assay is a method to measure the amount of formazan formed from MTT reduced by the mitochondria of living cells. More specifically, 100 μl of 0.5 mg/mL MTT solution was applied to each cell and incubated for 4 hours. Then, the solution was completely removed and the absorbance of the plate dissolved in DMSO was measured at 540 nm.
# HFDPC cell lines = experiment: Cell proliferation in dermal papilla cells (MTT assay); assay type: cell-based, human; conditions: treated for 3 and 6 days, 25 μg/ml and 50 μg/ml
# Protocol: Based on the results of the dermal papilla cell toxicity test confirmed above, the cell proliferation effect of the Hydrangea serrata extract and hydrangenol obtained in Examples 1 and 2 was confirmed. HFDPC cell lines were seeded into a 96-well plate at a concentration of 1.0×10^3 cells/well and incubated in a CO2 incubator conditioned at 37° C., 95% humidity, and 5% CO2 for 24 hours. Subsequently, after treatment with samples at each concentration, cell proliferation was measured by MTT assay after 1, 3, and 6 days of incubation. More specifically, after treatment with samples of each concentration, the incubation was proceeded for 24, 72, and 144 hours, and then each cell was treated with 100 μl of 0.5 mg/ml MTT solution, and after 4 hours, the solution was completely removed and the plates dissolved in DMSO were measured at an absorbance of […].
# 5α-reductase = biological target: T1, 5α-reductase (Rattus norvegicus, UniProt P24008); experiment: 5α-reductase enzyme activity inhibition (rat liver homogenate, testosterone quantified by HPLC); assay type: biochemical; conditions: treated at 125 μg/ml, 250 μg/ml, or 500 μg/ml; 37° C., 30 minutes; FIGS. 7A and 7B
# T1 construct: After centrifuging the homogenate at 10,000 xg for 10 minutes, the supernatant was […] to prepare an enzyme solution; from tissue; host or cells: liver of 7-week-old male SD rat (10,000 x g supernatant of homogenate)
# T1 sequence (P24008 1-259): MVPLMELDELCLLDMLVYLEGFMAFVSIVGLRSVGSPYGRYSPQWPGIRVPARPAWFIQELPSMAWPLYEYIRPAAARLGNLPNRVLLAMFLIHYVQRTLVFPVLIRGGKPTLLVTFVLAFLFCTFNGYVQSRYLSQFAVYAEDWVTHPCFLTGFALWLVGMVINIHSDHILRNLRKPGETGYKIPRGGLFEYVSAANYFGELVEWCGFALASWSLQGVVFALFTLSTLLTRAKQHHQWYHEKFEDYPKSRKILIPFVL
# Protocol: 5α-reductase reduces testosterone to produce dihydrotestosterone (DHT). After reacting rat liver homogenate with testosterone, the ability to inhibit 5α-reductase enzyme activity was measured using a method of quantify testosterone.
# First, a 7-week-old male SD rat was prepared and anesthetized using ethyl ether. After SD rats were laparotomised, the hepatic portal vein thereof was nicked, and cold STM buffer (270 mM sucrose, 10 mM Tris-HCl, pH7.5, 1 mM MgCl2, G-biosciences, USA) was injected into the left ventricle using a syringe. The injection was continued until the STM buffer was perfused into the liver and the color of the liver changed from dark red to light pink. Afterwards, the liver was removed, transferred to a beaker, cut with scissors, and homogenized after adding STM buffer in an amount three times that of the liver. After centrifuging the homogenate at 10,000 xg for 10 minutes, the supernatant was […] to prepare an enzyme solution. […] The dichloromethane layer was separated, concentrated, dissolved in 50% methanol, and quantified using high-performance chromatography. The 5α-reductase inhibition ability was calculated using the formula: 5α-reductase inhibition ability (%)=[1−(area value of sample-area value of blank sample)/(area value of test group-area value of blank sample)]×100.
compound,measurement,setting,value
"O=C1OC(c2ccc(O)cc2)Cc2cccc(O)c21 (stereo not shown) [hydrangenol, 8-hydroxy-3-(4-hydroxyphenyl)-3,4-dihydroisochromen-1-one]",cytotoxicity (cell viability by MTT),"[1]; 1.56, 3.12, 6.25, 12.5, 25, 50 and 100 μg/ml",no cytotoxicity was shown at all concentrations
same,cell growth,[1]; concentrations of 3.12 μg/ml to 100 μg/ml,significantly increase cell growth
same,cell growth (cell proliferation by MTT),HFDPC cell lines,cell growth was significantly increased
same,5α-reductase inhibitory activity,5α-reductase,5α-reductase inhibitory activity in a concentration-dependent manner
